Source: US20070260068A1, “Method for the Preparation of Crystal Forms of Torsemide in a Pure State” (priority 2004, published 2007)

Key:
[1] = stability of the crystal form in an ethanol slurry; assay type: physicochemical
Procedure: (§1) In another embodiment of the present invention, torsemide modification I may be made from torsemide modification II by reslurry in ethanol. By the process of the present invention, torsemide modification II is stirred at room temperature in ethanol for a time sufficient to induce the transformation of torsemide modification II to torsemide modification I. Preferably the mixture is stirred for 2 hours. Torsemide modification I is isolated upon filtering the mixture followed by drying under high vacuum at a temperature of about 40° C. to about 60° C. for a sufficient time to complete drying. Drying is complete upon reaching constant weight. It has been observed that torsemide modification I is stable in an ethanol slurry for at least 65 hours.
as §1, with “dimethyl formamide (DMF).” for “ethanol.”, “methods” for “process”, “DMF” for “ethanol”, “I.” for “I. Preferably the mixture is stirred for 2 hours.”, “It has been observed that torsemide modification I is stable in an ethanol slurry for at least 65 hours.” left out

[2] = solubility of amorphous torsemide compared with crystalline forms; assay type: physicochemical; details: isolated amorphous torsemide vs crystalline forms incl. those of U.S. 5,914,336, Re. 34,672 and WO 00/20395

time stable in an ethanol slurry [1] | SMILES | solubility relative to crystalline forms of torsemide [2]
at least 65 hours | Cc1cccc(Nc2ccncc2S(=O)(=O)NC(=O)NC(C)C)c1 [torsemide modification I, 1-Isopropyl-3-[(4-m-toluidino-3-pyridyl)sulfonyl] urea] | 
 | Cc1cccc(Nc2ccncc2S(=O)(=O)NC(=O)NC(C)C)c1 [amorphous torsemide, 1-Isopropyl-3-[(4-m-toluidino-3-pyridyl)sulfonyl] urea] | more soluble than crystalline forms of torsemide
